Assay results taken from PMC12563821 (International Journal of Molecular Sciences, 2025).
Read-outs that look alike come from different tables or passages of the source.

What was measured:
[1] = molecular target: T1, Sirt2 (Homo sapiens, UniProt Q8IXJ6); experiment: Fluorescence-based Sirt2 deacetylase inhibition assay (Reaction Biology); format: biochemical; conditions: for IC50: fluorescence-based assay
T1 construct: comprising amino acids 50–389 (C-terminal); His-tag (N); purchased Reaction Biology Corporation (Malvern, PA, USA), in-house enzyme of the contract laboratory; host or cells: E. coli
T1 sequence (Q8IXJ6 50-389): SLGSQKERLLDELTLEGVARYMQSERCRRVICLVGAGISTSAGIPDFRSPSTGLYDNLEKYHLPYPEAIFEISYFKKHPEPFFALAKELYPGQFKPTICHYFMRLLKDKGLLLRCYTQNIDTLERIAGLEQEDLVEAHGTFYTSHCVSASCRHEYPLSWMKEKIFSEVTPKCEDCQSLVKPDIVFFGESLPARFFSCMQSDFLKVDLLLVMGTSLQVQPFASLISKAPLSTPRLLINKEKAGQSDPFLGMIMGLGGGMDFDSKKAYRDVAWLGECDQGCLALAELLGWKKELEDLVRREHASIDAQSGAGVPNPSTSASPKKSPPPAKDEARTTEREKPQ
Protocol: (§1) The determination of the inhibitory potency and corresponding subtype selectivity of the synthesized hybrid candidates was performed by Reaction Biology Cooperation (Malvern, PA, USA) using a fluorescence-based assay (Table 1).
Sirtuin assays. The biological activity of the test substances against the respective sirtuin enzymes was evaluated by means of a fluorescence-based assay performed by Reaction Biology Corporation (Malvern, PA, USA). The sirtuin enzymes used in the assays were all obtained from in-house sources at Reaction Biology Corporation (Malvern, PA, USA). […] Sirt2 is provided in a buffer containing 50 mM Tris/HCl (pH 7.5), 500 mM NaCl, 1 mM TCEP, and 10% glycerol (v/v). […] Sirt3 is supplied in 50 mM Tris/HCl (pH 7.5), 500 mM NaCl, and 10% glycerol (v/v). […] All proteins were provided in purified forms for use in the assays. […] After 2 h of incubation at 30 °C, the universal inhibitor nicotinamide was added in excess to completely stop the deacetylation reaction, followed by the addition of a protease-based developer to release 7-amino-4-methylcoumarin, resulting in characteristic fluorescence, which was measured after 1 h at 30 °C (excitation/emission = 360/460). A no-inhibitor control was implemented, serving as a reference for 100% enzyme activity. […] Three individual IC50 values per test compound were calculated from the corresponding three dilution series fluorescence data using sigmoidal curve fitting in Prism 8.0.2 (GraphPad Software, Boston, MA, USA), and these were averaged to determine the mean IC50 value along with the standard deviation. To assess the selectivity against Sirt1, Sirt3, and Sirt5, a 50 µM concentration of the test compound was tested in duplicate, and the inhibitory activity was expressed as the mean of the duplicates in percentage of enzyme activity, including standard deviation, relative to the no-inhibitor control (representative 100% enzyme activity).

[2] = test system: T2, Sirt1; experiment: Fluorescence-based Sirt1 subtype selectivity assay (Reaction Biology); format: biochemical; conditions: 50 µM inhibitor, duplicate, relative to no-inhibitor control
T2 construct: includes amino acids 1–747 (C-terminal); His-tag (N); purchased Reaction Biology Corporation (Malvern, PA, USA), in-house enzyme of the contract laboratory; host or cells: E. coli
Protocol: as §1
(§2) Sirtuin assays. The biological activity of the test substances against the respective sirtuin enzymes was evaluated by means of a fluorescence-based assay performed by Reaction Biology Corporation (Malvern, PA, USA). The sirtuin enzymes used in the assays were all obtained from in-house sources at Reaction Biology Corporation (Malvern, PA, USA). Sirt1, with accession number NM_012238, includes amino acids 1–747 (C-terminal) and is tagged with an N-terminal His-tag. Sirt1 was expressed in E. coli and purified to greater than 85% as confirmed by SDS-PAGE and is supplied as a solution in 50 mM Tris/HCl (pH 7.5), 100 mM NaCl, and 10% glycerol (v/v). Sirt2 (accession number NM_012237), comprising amino acids 50–389 (C-terminal), features an N-terminal His-tag and was expressed in E. coli and finally purified to over 90% by SDS-PAGE. Sirt2 is provided in a buffer containing 50 mM Tris/HCl (pH 7.5), 500 mM NaCl, 1 mM TCEP, and 10% glycerol (v/v). Sirt3, with accession number NM_012239.3, spans amino acids 101–399 and is tagged with an N-terminal GST and expressed in E. coli and purified to greater than 85% purity by SDS-PAGE. Sirt3 is supplied in 50 mM Tris/HCl (pH 7.5), 500 mM NaCl, and 10% glycerol (v/v). Sirt5 (accession number NM_012241), consisting of amino acids 37–310 (C-terminal) and tagged with an N-terminal His-tag, was expressed in E. coli, purified to greater than 95% purity by SDS-PAGE and delivered as a solution in 50 mM Tris/HCl (pH 7.5), 500 mM NaCl, 1 mM TCEP, and 10% glycerol (v/v). All proteins were provided in purified forms for use in the assays. The respective internal assay protocol is outlined in the following: After the test substances (dissolved in DMSO) were incubated with the desired sirtuin enzyme in assay buffer (Tris-HCl, pH = 8) for 10 min at 30 °C, a substrate mixture consisting of a 7-amino-4-methylcoumarin-linked fluorogenic peptide substrate (p53 residues 379–382) and the cofactor NAD^+ was added. After 2 h of incubation at 30 °C, the universal inhibitor nicotinamide was added in excess to completely stop the deacetylation reaction, followed by the addition of a protease-based developer to release 7-amino-4-methylcoumarin, resulting in characteristic fluorescence, which was measured after 1 h at 30 °C (excitation/emission = 360/460). A no-inhibitor control was implemented, serving as a reference for 100% enzyme activity. […] Three individual IC50 values per test compound were calculated from the corresponding three dilution series fluorescence data using sigmoidal curve fitting in Prism 8.0.2 (GraphPad Software, Boston, MA, USA), and these were averaged to determine the mean IC50 value along with the standard deviation. To assess the selectivity against Sirt1, Sirt3, and Sirt5, a 50 µM concentration of the test compound was tested in duplicate, and the inhibitory activity was expressed as the mean of the duplicates in percentage of enzyme activity, including standard deviation, relative to the no-inhibitor control (representative 100% enzyme activity).

[3] = test system: T3, Sirt3; experiment: Fluorescence-based Sirt3 subtype selectivity assay (Reaction Biology); format: biochemical; conditions: 50 µM inhibitor, duplicate, relative to no-inhibitor control
T3 construct: spans amino acids 101–399; GST (N); purchased Reaction Biology Corporation (Malvern, PA, USA), in-house enzyme of the contract laboratory; host or cells: E. coli
Protocol: as §1, §2

[4] = test system: T4, Sirt5; experiment: Fluorescence-based Sirt5 subtype selectivity assay (Reaction Biology); format: biochemical; conditions: 50 µM inhibitor, duplicate, relative to no-inhibitor control
T4 construct: consisting of amino acids 37–310 (C-terminal); His-tag (N); purchased Reaction Biology Corporation (Malvern, PA, USA), in-house enzyme of the contract laboratory; host or cells: E. coli
Protocol: as §1, §2

[5] = MTT-based cell viability assay; set-up: species or system human; conditions: human; HL-60 cells, 24 h incubation, MTT; read-out: IC50 acute cytotoxicity
Protocol: (§3) The SirReal-based Sirt2 inhibitors (FM345, FM352, FM358, FM368, RW-93, RW-95 and RW-99) were tested for potential acute cytotoxicity to human cells in an MTT-based cell viability assay. […] HL-60 cells were treated with the corresponding Sirt2 inhibitors at various concentrations and then incubated for 24 h. […] Representative cell viability results following treatment with RW-93 are shown in Figure S1 of the Supplementary Materials.
(§4) Cell viability assay. The cytotoxicity of the Sirt2 inhibitors was determined using a colorimetric MTT assay following Mosmann’s protocol. HL-60 cells (purchased from DSMZ (German Collection of Microorganisms and Cell Cultures, Deutsche Sammlung von Mikroorganismen und Zellkulturen GmbH, Braunschweig, Germany) were cultivated in RPMI medium with 10% fetal bovine serum at 37 °C with 5% CO2 atmosphere. The cells were then seeded in a 96-well plate with a concentration of 9 x 10^4 cells/well and a well volume of 99 µL. The cells were further incubated at 37 °C with 5% CO2 atmosphere for 24 h. The cells were then treated with 1 µL solution of Sirt2 inhibitors in various concentrations, which were prepared from 10 mM or 20 mM DMSO stock solutions. Negative controls were treated with 1 µL DMSO and positive controls with 1 µL of 1% Triton-X solution. Three technical replicates were performed. After incubation for 24 h, 10 µL MTT (5.0 mg/mL in PBS) were added to each well and the cells were incubated at 37 °C with 5% CO2 atmosphere for 2 h. Then 190 µL DMSO were added to each well and the plate shaken at room temperature at 600 rpm for 1 h with light exclusion. The absorbance of the MTT metabolite formazan was measured at 570 nm using the MRX Microplate Reader (Dynex Technologies, Chantilly, VA, USA). The means of the corresponding triplicates were calculated and set in relation to the 1% DMSO negative controls. The data was processed using Prism 8.0.2 (GraphPad Software, Boston, MA, USA) software and a logarithmic sigmoidal curve fitting for the calculation of the respective IC50 values was performed.

[6] = test system: HL-60 cells; experiment: MTT-based cell viability assay; set-up: species or system human
Protocol: as §3, §4

[7] = test system: HL-60 cell line; set-up: method as in PMID 35441145; conditions: cited from earlier work
[8] = rounded values, read-out: IC50 Sirt2
[9] = mean ± SD of three dilution series, read-out: IC50 [µM] ± SD Sirt2

| Structure (SMILES) | IC50 [1, 8] | IC50 [1, 9] | Residual Enzyme Activity [%] ± SD Sirt1 [2] | Residual Enzyme Activity [%] ± SD Sirt3 [3] | Residual Enzyme Activity [%] ± SD Sirt5 [4] | IC50 at 24 h [5] | selectivity towards related subtypes Sirt1, Sirt3 and Sirt5 ([1]; Sirt2 versus Sirt1, Sirt3, Sirt5) | outperforms lead compound SirReal2 by a factor ([1]; ratio of Sirt2 IC50 values) | stronger Sirt2 inhibition compared to lead compound Yang_24a (fold) ([1]; ratio of Sirt2 IC50 values) | times more potent than hybrid precursor FM358 ([1]; ratio of Sirt2 IC50 values) | changes in cell viability relative to DMSO control ([6]; HL-60 cells, MTT, up to 200 µM, three technical replicates) | acute toxicity to human cells ([6]; MTT assay) | toxicity in HL-60 cell line [7] |
| --- | --- | --- | --- | --- | --- | --- | --- | --- | --- | --- | --- | --- | --- |
| Cc1cc(C)nc(SCC(=O)Nc2ncc(COc3ccccc3)s2)n1 [FM345, 2-((4,6-Dimethylpyrimidin-2-yl)thio)-N-(5-(phenoxymethyl)thiazol-2-yl)acetamide] | 5.3 µM | 5.29 ± 0.73 µM | 95.6 ± 2.3% | 78.8 ± 0.8% | 94.6 ± 2.3% | > 50000 nM |  |  |  |  |  |  |  |
| Cc1cc(C)nc(SCC(=O)Nc2ncc(COc3ccc(NC(=O)c4cccs4)cc3)s2)n1 [FM352, N-(4-((2-(2-((4,6-Dimethylpyrimidin-2-yl)thio)acetamido)thiazol-5-yl)methoxy)phenyl)thiophene-2-carboxamide] | 0.094 µM | 0.0935 ± 0.0064 µM | 101 ± 1% | 75.8 ± 5.3% | 75.6 ± 1.1% | > 50000 nM |  |  |  |  |  |  |  |
| Cc1cc(C)nc(SCC(=O)Nc2ncc(COc3ccc(NC(=O)c4cnn(C)c4)c(Br)c3)s2)n1 [RW-93, N-(2-Bromo-4-((2-(2-((4,6-dimethylpyrimidin-2-yl)thio)acetamido)thiazol-5-yl)-methoxy)phenyl)-1-methyl-1H-pyrazole-4-carboxamide] | 0.016 µM | 0.0155 ± 0.0007 µM | 58.2 ± 0.2% | 62.3 ± 1.2% | 53.0 ± 0.2% | > 50000 nM | more than 3000 fold | 15 | 5 | more than 4 | No signiﬁcant changes | ruled out |  |
| Cc1cc(C)nc(SCC(=O)Nc2ncc(COc3ccc(NC(=O)c4cnn(C)c4)c(I)c3)s2)n1 [RW-95, N-(4-((2-(2-((4,6-Dimethylpyrimidin-2-yl)thio)acetamido)thiazol-5-yl)methoxy)-2-iodophenyl)-1-methyl-1H-pyrazole-4-carboxamide] | 0.049 µM | 0.0485 ± 0.0056 µM | 60.9 ± 0.7% | 64.2 ± 1.2% | 48.2 ± 1.8% | > 50000 nM |  |  |  |  |  |  |  |
| Cc1cc(C)nc(SCC(=O)Nc2ncc(COc3ccc(NC(=O)c4cnn(C)c4)cc3)s2)n1 [FM358, N-(4-((2-(2-((4,6-Dimethylpyrimidin-2-yl)thio)acetamido)thiazol-5-yl)methoxy)-phenyl)-1-methyl-1H-pyrazole-4-carboxamide] | 0.066 µM | 0.0656 ± 0.0044 µM | 71.9 ± 0.6% | 62.5 ± 0.1% | 79.8 ± 0.6% | > 50000 nM |  |  | 1.2 |  |  |  |  |
| Cc1cc(C)nc(SCC(=O)Nc2ncc(COc3ccc(NC(=O)c4cnn(C)c4)c(Cl)c3)s2)n1 [RW-99, N-(2-Chloro-4-((2-(2-((4,6-dimethylpyrimidin-2-yl)thio)acetamido)thiazol-5-yl)methoxy)phenyl)-1-methyl-1H-pyrazole-4-carboxamide] |  | 0.025 ± 0.0026 µM | 53.9 ± 0.2% | 56.1 ± 0.1% | 55.1 ± 2.0% | > 50000 nM |  |  |  |  |  |  |  |
| Cc1cc(C)nc(SCC(=O)Nc2ncc(Cc3cccc4ccccc34)s2)n1 [SirReal2] |  |  |  |  |  |  |  |  |  |  |  |  | not toxic |
| Cc1cc(C)nc(SCC(=O)Nc2ncc(COc3cccc4ccccc34)s2)n1 [FM368, 2-((4,6-Dimethylpyrimidin-2-yl)thio)-N-(5-((naphthalen-1-yloxy)methyl)thiazol-2-yl)acetamide] | 6.5 µM | 6.51 ± 0.84 µM | 88.5 ± 2.7% | 85.0 ± 0.5% | 89.1 ± 1.4% | > 50000 nM |  |  |  |  |  |  |  |
